Data as given in patent publication US20150359668A1, “LIGHT DELIVERY DEVICE AND RELATED COMPOSITIONS, METHODS AND SYSTEMS” (CALIFORNIA INSTITUTE OF TECHNOLOGY, priority 2011, published 2015).
Several values for one entry are separate records, joined by “and”; a condition that tells them apart may be missing. Equal entries are not always repeated.

Columns and labels:
[1] = tested on: sclera; experiment: drug diffusion into the sclera of intact eyes (extraction assay, diffusion model fit); conditions: sclera; for diffusivity, D / partition coefficient, k: from DPBS
Text: Orbital tissues were removed with scissors to expose the sclera. […] After the contact time, the eye was removed from the drug solution, and excess solution on the sclera was dabbed away with a Kimwipe. The eye was dissected using a scalpel blade and a pair of scissors to obtain a posterior scleral section on the temporal side near the optic nerve. The tissue section was placed onto a trephine punch to cut out a 9.5-mm diameter cross-section.
(§1) Quantitative assay of the amount of drug delivered—Experiments were performed for five drug contact times (four samples each): for the cornea, tc,cornea=0.25, 0.5, 1, 2, and 4 hrs, and for the sclera, tc,sclera=0.5, 2, 4, 7.5, and 120 hrs. Each experiment was repeated four times. For each experiment, the 9.5-mm diameter tissue cross-section obtained as described above was placed into a 50 mL centrifuge tube and immersed in 50 mL of extractant (doubled-distilled water for cornea or DPBS for sclera) then placed on a rocker to extract the drug molecules (FIG. 40). […] After a first extraction time te,1 of 8 hours, the tissue specimen was then transferred into another 50 mL of fresh extractant and the extract was retained for analysis.
(§2) The concentration of the drug in the extract was determined using fluorimetry. […] The fluorescence of each extract was measured and concentration was determined based on calibration curves prepared for each compound using a series of solutions with known concentrations. The extraction process was repeated using successively longer extraction times until there was no detectable fluorescence in the supernatant.
(§3) Porcine eyes closely resemble a sphere with diameter ˜25 mm. The cornea and sclera are the targeted tissues and both have thicknesses that are on the order of 1 mm. Since these tissue thicknesses are less than a tenth of the diameter of the eye, they are modeled as semi-infinite slabs. Each tissue is approximated as a uniform material. Fick's diffusion equation is given by
(§4) where C(z,t) is the drug concentration inside the tissue, t is the time since the exterior surface of the tissue was placed in contact with the drug solution, z is the distance into the tissue from its exterior surface, and D is the diffusion coefficient. […] For short contact times, the concentration falls to zero before the profile reaches the endothelium. For longer contact times, the boundary condition that the concentration falls to zero far into the system is still used as a first approximation (neglecting the change in material properties at the endothelium and neglects different transport processes in the aqueous or vitreous).
(§5) where area represents the cross-sectional area of the tissue sample and L is the thickness of the tissue sample. At long drug contact time, the predicted concentration changes very slowly and approaches a value governed by the partition coefficient.
(§6) with i being the individual data point and N being the total data points used for the fit. Data fitting was performed by writing a program in MATLAB software.

[2] = physiological pH; cited from earlier work
[3] = tested on: guinea pig eyes; experiment: guinea pig form-deprivation myopia and normal ocular growth after subconjunctival treatment; conditions: Set A, eyes enucleated immediately after treatment
[4] = tested on: cornea; experiment: drug diffusion into the cornea of intact eyes (extraction assay, diffusion model fit); conditions: for diffusivity, D / partition coefficient, k: from DPBS
Protocol: Siena for Medical Science supplied porcine eyes from 3-4 month old swine. Eyes were stored in ocular balanced saline solution on ice until use within 48 hours post mortem. […] The epithelial cell layer was removed by scraping with a scalpel. […] The drug solution containing the eye was gently agitated using a rocker for a specified “drug contact time” (tc,cornea ranging from 0 to 4 hours). After the drug contact time, the eye was removed from the drug solution, and excess solution on the cornea was dabbed away with a Kimwipe. The eye was dissected using a scalpel blade and a pair of scissors to cut around the corneoscleral limbus to separate out the cornea. The tissue section was placed onto a trephine punch to cut out a 9.5-mm diameter corneal cross-section.
as §1, §2, §3, §4, §5, §6

[5] = tested on: cell viability; conditions: cited from earlier work
[6] = tested on: cornea; experiment: model of photodynamic collagen cross-linking profile in the cornea
Text: Design of experiments—The collagen gel photorheological technique discussed in Examples 29-31 was used to gather collagen cross-linking rate data in order to model the extent and distribution of cross-link formation in the tissue. Collagen gel samples have uniform drug concentration profiles based on the preparation technique developed Examples 29-31. The protocols for collagen gel preparation and photorheological measurement are described in the Methods Section of Example 29-31. The pairs of drug concentrations and collagen gel thicknesses were selected such that the intensity profile is approximately uniform throughout the sample. Based on light intensity calculations, this is achieved when the ratio of light penetration depth over sample thickness is 1.2. The light intensity profile in the sample is given by:
Design of the model—Photodynamic collagen cross-linking depends on both the local photosensitizer concentration and the light intensity which are functions of treatment parameters: drug concentration, contact time (duration the drug is in contact with the tissue), delay time (period between end of contact time and beginning of irradiation), and irradiation time (FIGS. 46A-46C). […] The concentration profile can be calculated using Fick's diffusion equation. The light intensity also varies along the tissue as determined by Beer's law. […]

[7] = tested on: collagen gel; experiment: collagen gel photorheology: storage modulus during photo-activated cross-linking; conditions: for cross-linking rate as % of the rate without singlet oxygen quenchers: in air; for rate of change in storage modulus, Ġ′ (increased by): 30-minute irradiation
[8] = 0.02% eosin Y or 0.1% riboflavin, 0 mW/cm^2

**Q.** Which results are given for `O=C([O-])c1ccccc1-c1c2cc(Br)c(=O)c(Br)c-2oc2c(Br)c([O-])c(Br)cc12.[Na+].[Na+]` [Eosin Y, eosin Y]?
**A.** permeability [1]: 0.099 μm/s; time for the concentration to level off [1]: approximately 30 hours; drug in second extract, % of the first extract ([1]; 2 hours contact time): approximately 20%; diffusivity, D [1]: 6.2 ± 1.7 μm^2/s and 6.2 μm^2/s; partition coefficient, k [1]: 13.0±1.1 and 13.0; diffusivity, D ([1]; listed as eosin Y): 6.2 μm^2/s; partition coefficient, k ([1]; listed as eosin Y): 13; diffusion coefficient without the binding effect, Dab ([1]; Dab=kD): 81 μm^2/s; ionization in solution [2]: negatively ionized; distribution in the sclera after subconjunctival injection [3]: pink staining from Eosin Y over the entire sclera; drug contact time at which delivered amount levels off ([4]; cornea): 2 h; diffusivity, D ([4]; cornea): 62 μm^2/s and 62 ± 22 μm^2/s; partition coefficient, k ([4]; cornea): 4.3±0.7 and 4.3; diffusivity, D ([4]; cornea, listed as eosin Y): 62 μm^2/s; partition coefficient, k ([4]; cornea, listed as eosin Y): 4.3; diffusion coefficient without the binding effect, Dab ([4]; cornea, Dab=kD): 267 μm^2/s; calculated permeability ([4]; through porcine cornea): 0.31 μm/s; concentration with excellent cell viability (up to) [5]: up to 20 mM; characteristic time to penetrate the entire cornea, L^2/(4*D) [6]: ~15 min; cross-linking rate as % of the rate without singlet oxygen quenchers ([7]; 10 mM ascorbic acid): 43±23%; modulus change during the last 10 minutes, no irradiation [7, 8]: 59±34 Pa; ΔG′ over the 30-minute period without irradiation [7, 8]: −23±76 Pa; modulus change during the 10 minutes after cessation of irradiation ([7]; 0.02% eosin Y, 6 mW/cm^2, 0.1% riboflavin, 3 mW/cm^2): 61±136 Pa; change of storage modulus ΔG′ over the 30-minute irradiation ([7]; 0.02% eosin Y, 6 mW/cm^2 at 530±15 nm, 0.1% riboflavin, 3 mW/cm^2 at 370±12 nm): 793±118 Pa; cross-linking rate as % of the rate without singlet oxygen quenchers ([7]; 20 mM ascorbic acid): 23±10%; cross-linking rate as % of the rate without singlet oxygen quenchers ([7]; 100 mM ascorbic acid): −7±6%; cross-linking rate as % of the rate without singlet oxygen quenchers ([7]; 100 mM sodium azide): 34±8%; cross-linking rate in the absence of oxygen (reduced to) ([7]; argon vs air): 12%; rate of change in storage modulus, Ġ′ (increased by) ([7]; in the absence of oxygen (in argon)): 3.4±2.3 Pa/min; rate of change in storage modulus, Ġ′ (increased by) ([7]; in the presence of oxygen (in air), 0.05% riboflavin 370 nm or 0.02% eosin Y 530 nm): 28.4±5.1 Pa/min
